Experimental data reported in PMC9866095, “Efficient Synthesis and In Vitro Hypoglycemic Activity of Rare Apigenin Glycosylation Derivatives” (Molecules, 2023).

Target: α-glucosidase
Experiment: pNPG hydrolysis, absorbance at […] nm, commercial enzyme
Type: biochemical

Row | Compound | IC50
1 | O=C(O)CCC(=O)OC[C@H]1O[C@@H](Oc2cc(O)c3c(=O)cc(-c4ccc(O)cc4)oc3c2)[C@H](O)[C@@H](O)[C@@H]1O [SAG, apigenin-7-O-β-(6″-O-succinyl)-D-glucoside] | 485 µM
2 | O=c1cc(-c2ccc(O)cc2)oc2cc(O[C@@H]3O[C@H](CO)[C@@H](O)[C@H](O)[C@H]3O)cc(O)c12 [AG, apigenin-7-O-β-(6″-O)-D-glucoside] | 532 µM
3 | O=c1cc(-c2ccc(O)cc2)oc2cc(O)cc(O)c12 [Apigenin] | 525 µM
